Consider one compound from US12408662B2, “Hydrogen peroxide and peracid stabilization with molecules based on a pyridine carboxylic acid” (ECOLAB USA INC., priority 2018, dated 2025).

Molecules are shown by their SMILES.

The data set in a line: Stability of peroxyacetic acid compositions with lower acetic acid relative to hydrogen peroxide (Example 3, FIG. 3). The format is physicochemical.

Turning to `O=C(O)c1cccnc1` [Niacin, 3-pyridinecarboxylic acid], the “stabilization of peroxyacetic acid (in words)” value is “comparable to commonly used stabilizers”.
